Laboratory results reported in US6130053A, “Method for selecting compounds for inhibition of neoplastic lesions” (priority 1999, dated 2000).
pIC50, pKd: −log10 of the molar value. “Also recorded” adds a separate entry of the source. Read-outs that look alike come from different tables or passages of the source. Blank lines part the entries; values can stand above or below the compound they belong to.

Columns and labels:
HT-29 cells = assay: Growth inhibition of HT-29 cells; assay type: cell-based, human
[1] = molecular target: T1, COX-I (purified cyclooxygenase Type 1) (Ovis aries, UniProt P05979); assay: COX inhibition assay, purified cyclooxygenase (Type 1); assay type: biochemical, ram; settings: for COX-I inhibition: FIG. 5
T1 construct: purified cyclooxygenase from ram seminal vesicles; from tissue; host or cells: ram seminal vesicles
T1 sequence (P05979 25-600): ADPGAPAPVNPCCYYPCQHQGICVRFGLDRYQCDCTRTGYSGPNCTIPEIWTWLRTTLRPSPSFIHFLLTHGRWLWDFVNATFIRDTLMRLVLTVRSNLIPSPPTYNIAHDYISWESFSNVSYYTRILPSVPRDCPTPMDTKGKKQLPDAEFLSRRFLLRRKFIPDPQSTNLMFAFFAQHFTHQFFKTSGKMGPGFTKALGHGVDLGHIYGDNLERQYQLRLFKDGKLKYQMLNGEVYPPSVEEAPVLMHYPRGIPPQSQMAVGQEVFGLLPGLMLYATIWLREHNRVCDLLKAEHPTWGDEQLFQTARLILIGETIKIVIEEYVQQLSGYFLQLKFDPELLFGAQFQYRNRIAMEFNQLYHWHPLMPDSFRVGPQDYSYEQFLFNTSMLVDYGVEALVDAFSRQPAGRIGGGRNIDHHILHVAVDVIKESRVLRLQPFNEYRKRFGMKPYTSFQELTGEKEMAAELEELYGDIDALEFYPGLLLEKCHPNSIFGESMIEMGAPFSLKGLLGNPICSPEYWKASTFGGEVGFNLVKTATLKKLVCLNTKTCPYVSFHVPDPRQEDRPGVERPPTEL

[2] = tested on: PDE peak B (novel cGMP-specific phosphodiesterase); assay: Inhibition of cGMP hydrolysis by PDE peak B (novel cGMP-specific PDE) from SW480 cells; assay type: biochemical, human; settings: for Km: absence of cAMP
cGMP PDE = cGMP PDE inhibition assay, enzyme purified from HT-29 cultured tumor cells; assay type: biochemical, human
[3] = tested on: SW-480 colon adenocarcinoma cells; assay: Apoptosis inducing activity, fold induction (fold stimulation, DNA fragmentation ELISA); settings: for fold induction at 100 µM: Homo sapiens, SW480, read-out: Fold induction of apoptosis at 100 μM, 100 μM
[4] = tested on: [H][C@@]12COP(=O)(O)O[C@@]1([H])[C@@H](O)[C@H](n1cnc3c(=O)[nH]c(N)nc31)O2; assay: purified protein, by the assay type; settings: 30.0 °C
PDE peak A (PDE5) = molecular target: T2, PDE peak A (PDE5) (Homo sapiens, UniProt O76074); assay: Inhibition of cGMP hydrolysis by PDE peak A from SW480 cells; assay type: biochemical
T2 construct: approximately four hundred million SW480 cells at confluence were scraped; endogenous in cells; host or cells: SW480 human colon adenocarcinoma cells (DEAE-Trisacryl M fraction)

HT-29 cells (cAMP level) = assay: cAMP production in cultured HT-29 cells (radioimmunoassay); assay type: cell-based, human; settings: 30 minutes
[5] = tested on: PDE peak B (novel cGMP-specific phosphodiesterase); settings: cited from earlier work
[6] = tested on: premalignant lesions in mammary gland organ culture; assay: Inhibition of premalignant lesions in mammary gland organ culture; assay type: cell-based, mouse; settings: FIG. 17
native bovine PDE5 = settings: read-out: Kd (cGMP binding, native bovine PDE5); cited from earlier work
[7] = Homo sapiens, HT-29; read-out: Growth % Inhibition at 100 μM

inhibition at 100 µM [1]: < 25%
Compound: CC(=O)NC(CSC12CC(=O)OC1(C)/C(=C/c1ccc(S(C)(=O)=O)cc1)c1ccc(F)cc12)C(=O)O (racemic) [D, rac-(E)-1-(butan-1',4'-olido)-[3',4':1,2]-6-fluoro-2-methyl-3-(p-methylsulfonylbenzylidene)-1S-indanyl-N-acetylcysteine]
inhibition at 100 µM (HT-29 cells; [7]): 78%

Compound: CCCOc1ccccc1-c1nc2nn[nH]c2c(=O)[nH]1 [Zaprinast]
sensitivity of peak B / novel PDE to inhibitor [2]: reduced sensitivity to inhibition; also recorded: zaprinast-insensitive

Compound: CCOC(=O)C1=C[C@]2(CC)CCCN3CCc4c(n1c1ccccc41)[C@@H]32 [Vinpocetine]
sensitivity of peak B / novel PDE to inhibitor [2]: insensitive

Compound: O=C(O)C1CCN(c2nc(NCc3ccc4c(c3)OCO4)c3cc(Cl)ccc3n2)CC1 [Compound E4021]
inhibition at 100 µM (HT-29 cells; Homo sapiens, HT-29, read-out: Growth % Inhibition at 100 μM): < 50%

Compound: CCN(CC)CCSC12CC(=O)OC1(C)/C(=C/c1ccc(S(C)(=O)=O)cc1)c1ccc(F)cc12 (racemic) [A, rac-threo-(E)-1-(N,N'-diethylaminoethanethio)-1-(butan-1',4'-olido)-[3',4':1,2]-6-fluoro-2-methyl-3-(p-methylsulfonylbenzylidene)-indan]
cGMP PDE % Inhibition at 10 μM (cGMP PDE): < 25%
fold induction at 100 µM [3]: < 2
inhibition at 100 µM (HT-29 cells; [7]): 68%
inhibition at 100 µM [1]: < 25%

inhibition at 100 µM [1]: 94%
Compound: Clc1cccc(Nc2nnc(-c3ccccc3)c3ccccc23)c1 [MY5445, 1-(3-chloroanilino)-4-phenyphthalazine]

Compound: PDE peak A (PDE5) (Homo sapiens)
Km [4]: 1.07 µM
Vmax [4]: 0.16 nmol/min/mg

mode of inhibition of peak A (PDE peak A (PDE5)): competitively inhibited
Compound: COc1cc(/C=C2/C(C)=C(CC(=O)NCc3ccccc3)c3cc(F)ccc32)cc(OC)c1OC [Compound E, (Z)-5-Fluoro-2-methyl-1-(3,4,5-trimethoxybenzylidene)-3-indenylacetamide, N-benzyl]
mode of inhibition of peak B [2]: competitively inhibited
apoptosis-inducing or growth-inhibiting properties ([3]; neoplastic cells): precisely the opposite
COX-I inhibition [1]: neither test compound B and E significantly inhibit COX-I

Compound: COc1ccc(C2CNC(=O)C2)cc1OC1CCCC1 (stereo not shown) [Rolipram]
sensitivity of peak B / novel PDE to inhibitor [2]: insensitive
effect on cAMP level (HT-29 cells (cAMP level)): increased cAMP

Compound: CCCc1nn(C)c2c(=O)[nH]c(-c3cc(S(=O)(=O)N4CCN(C)CC4)ccc3OCC)nc12 [Sildenafil]
effect on new cGMP-specific PDE (words, '375 application) [5]: little relative effect
inhibition of peak A activity (PDE peak A (PDE5)): inhibited activity of peak A

Compound: CC1=C(CC(=O)O)c2cc(F)ccc2/C1=C\c1ccc(Cl)cc1 [Compound C, (Z)-5-Fluoro-2-methyl-1-(p-chlorobenzylidene)-3-acetic acid]
cGMP PDE % Inhibition at 10 μM (cGMP PDE): < 25%
inhibition at 100 µM (HT-29 cells; [7]): 80%

Compound: CC1=C(CC(=O)O)c2cc(F)ccc2/C1=C\c1ccc([S+](C)[O-])cc1 (stereo not shown) [sulindac]
inhibition of premalignant lesions [6]: effectively inhibit the formation of premalignant lesions

Compound: COc1cc(/C=C2/C(C)=C(CC(=O)O)c3cc(F)ccc32)cc(OC)c1OC [B, (Z)-5-Fluoro-2-methyl-1-(3,4,5-trimethoxybenzylidene)-3-acetic acid]
cGMP PDE % Inhibition at 10 μM (cGMP PDE): < 25%
cGMP PDE inhibition at 20 μM (cGMP PDE; 20 μM, FIG. 8): greater than 50%
fold induction at 100 µM [3]: 3.4
COX-I inhibition [1]: neither test compound B and E significantly inhibit COX-I

Compound: Nc1nc2c(ncn2[C@@H]2O[C@@H]3COP(=O)(O)O[C@H]3[C@H]2O)c(=O)[nH]1 [cGMP, cyclic guanosine 3',5'-monophosphate]
Km ([2]; read-out: Km of peak B for cGMP (increasing slope)): < 1 µM
Km ([2]; read-out: apparent Km of peak B for cGMP (first, decreasing part of Eadie-Hofstee plot)): 8.4 µM
pKd (native bovine PDE5): 5.89

Compound: CCCCCC[C@H]([C@H](C)O)n1cnc2c(N)ncnc21 (relative stereo) [EHNA]
pIC50 ([2]; cGMP hydrolysis, 0.25 μM 3H-cGMP): 5.43
fold induction at 100 µM [3]: < 2
pIC50 (PDE peak A (PDE5)): < 4.00

Compound: CC1(C)C(=O)Nc2ccc(C3=NNC(=O)CC3)cc21 [Indolidan]
sensitivity of peak B / novel PDE to inhibitor [2]: insensitive
